Where a chain is given by its changes, count along the chain named. Like-named read-outs stand apart in the source and are kept apart here.
What was measured:
[1] = biological target: T1, purified wild type MGL (wt-MGLL 6H-11-313) (Homo sapiens, UniProt Q99685)
T1 sequence (Q99685 1-303): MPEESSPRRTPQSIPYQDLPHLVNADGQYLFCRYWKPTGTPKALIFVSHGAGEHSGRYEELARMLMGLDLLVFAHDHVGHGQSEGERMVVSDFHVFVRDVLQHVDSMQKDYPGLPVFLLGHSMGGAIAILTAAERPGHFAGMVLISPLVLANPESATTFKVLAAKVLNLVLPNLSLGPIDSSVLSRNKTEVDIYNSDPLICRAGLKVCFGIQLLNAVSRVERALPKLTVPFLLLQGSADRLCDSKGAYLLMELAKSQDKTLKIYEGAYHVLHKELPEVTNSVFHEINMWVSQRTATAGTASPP

[2] = biological target: T2, mutant MGL (Homo sapiens, UniProt Q99685, L169S/L176S); experiment: MGL ThermoFluor assay - mutant; format: binding
T2 sequence (Q99685 1-303 L169S/L176S): T1 sequence (Q99685 1-303) with L169S, L176S

[3] = ThermoFluor, compound concentration measured by qNMR, read-out: MGL mutant ThermoFluor qKd (μM) (using qNMR conc.)
[4] = ThermoFluor concentration-response, read-out: MGL mutant ThermoFluor Kd
[5] = ThermoFluor, compound concentration measured by qNMR, read-out: MGL mutant ThermoFluor qKd (using qNMR conc.)
[6] = ThermoFluor thermal stability binding assay, read-out: MGL mutant ThermoFluor Kd
[7] = compound concentration measured by qNMR, read-out: MGL mutant ThermoFluor qKd (using qNMR conc.)

Compound | IC50 [1] [nM] | Kd [2, 4] [µM] | also measured
Cc1c(C(=O)N2CC(N3CCN(C(=O)c4cscn4)CC3)C2)[nH]c2ccc(Cl)cc12 [Cpd 755] | 468 | 0.328 | –
O=C(c1cc2ccc(C(F)(F)F)cc2[nH]1)N1CC(N2CCN(C(=O)c3nccs3)CC2)C1 [Cpd 756] | 519 | 0.383 | –
O=C(c1ccc(Oc2ccc(Cl)cn2)cc1)N1CC(N2CCN(C(=O)c3cscn3)CC2)C1 [Cpd 757] | 530 | 0.781 | –
Cc1c(C(=O)N2CC(N3CCN(C(=O)c4cscn4)CC3)C2)n(C)c2ccc(Cl)cc12 [Cpd 758] | 535 | – | Kd [2, 5]: 0.5 µM
O=C(c1ccc2c(c1)ncn2C1CCC(F)(F)CC1)N1CC(N2CCN(C(=O)c3nccs3)CC2)C1 [Cpd 759] | 579 | – | Kd [2, 7]: 0.037 µM
COc1cccc2c(C)c(C(=O)N3CC(N4CCN(C(=O)c5nccs5)CC4)C3)[nH]c12 [Cpd 760] | 581 | 0.199 | –
O=C(c1ccc2c(c1)ncn2CC(F)(F)F)N1CC(N2CCN(C(=O)c3nccs3)CC2)C1 [Cpd 761] | 583 | – | Kd [2, 7]: 0.092 µM
O=C(c1ccc2[nH]c3c(c2c1)CCCC3)N1CC(N2CCN(C(=O)c3nccs3)CC2)C1 [Cpd 763] | 635 | 0.083 | –
O=C(c1ccc(Oc2ccc(Br)cn2)cc1)N1CC(N2CCN(C(=O)c3cscn3)CC2)C1 [Cpd 765] | 667 | 3.09 | –
CC1(C)Cc2cc(C(=O)N3CC(N4CCN(C(=O)c5nccs5)CC4)C3)ccc2O1 [Cpd 766] | 680 | – | Kd [2, 5]: 0.378 µM
O=C(c1ccc(Oc2cc(C(F)(F)F)ccn2)cc1)N1CC(N2CCN(C(=O)c3cscn3)CC2)C1 [Cpd 769] | 725 | 2 | –
O=C(c1ccc2c(c1)OCCCO2)N1CC(N2CCN(C(=O)c3nccs3)CC2)C1 [Cpd 770] | 740 | – | Kd [2, 5]: 1.13 µM
O=C(c1cscn1)N1CC(N2CCN(C(=O)c3cc4cc(C(F)(F)F)ccc4[nH]3)CC2)C1 [Cpd 772] | 799 | 0.185 | –
O=C(c1ccc2c(c1)CCN2C(=O)C1CC1)N1CC(N2CCN(C(=O)c3nccs3)CC2)C1 [Cpd 773] | 845 | 0.04 | –
O=C(c1cscn1)N1CCN(C2CN(C(=O)c3[nH]c4nc(C(F)(F)F)ccc4c3Br)C2)CC1 [Cpd 774] | 848 | – | Kd [2, 5]: 0.254 µM
O=C(c1nccs1)N1CCN(C2CN(C(=O)c3ccccc3NCc3ccccc3)C2)CC1 [Cpd 775] | 862 | – | Kd [2, 6]: 0.333 µM
CC(C)(C)c1cc(C(=O)N2CC(N3CCN(C(=O)c4nccs4)CC3)C2)cc(C(C)(C)C)c1 [Cpd 776] | 902 | 0.257 | –
Cc1nc2cc(C(=O)N3CC(N4CCN(C(=O)c5nccs5)CC4)C3)ccc2n1CCC(F)(F)F [Cpd 777] | 913 | – | Kd [2, 7]: 0.048 µM
O=C(c1nccs1)N1CCN(C2CN(C(=O)c3sc4cc(C(F)(F)F)ccc4c3Cl)C2)C(C(F)(F)F)C1 (stereo not drawn) [Cpd 778, 1-(1-{[3-Chloro-6-(trifluoromethyl)-1-benzothiophen-2-yl]carbonyl}azetidin-3-yl)-4-(1,3-thiazol-2-ylcarbonyl)-2-(trifluoromethyl)piperazine] | 933 | – | Kd [2, 3]: 1.2 µM
O=C(c1ccc2nc(C(F)(F)F)cc(Cl)c2c1)N1CC(N2CCN(C(=O)c3nccs3)CC2)C1 [Cpd 779] | 944 | 0.1 | –
O=C(c1ccc2c(c1)ncn2CCC(F)(F)F)N1CC(N2CCN(C(=O)c3nccs3)CC2)C1 [Cpd 780] | 978 | – | Kd [2, 7]: 0.128 µM
COCCOc1ccc(C(=O)N2CC(N3CCN(C(=O)c4nccs4)CC3)C2)cc1 [Cpd 782] | 1070 | – | Kd [2, 5]: 0.463 µM
Cc1nc2cc(C(=O)N3CC(N4CCN(C(=O)c5nccs5)CC4)C3)ccc2s1 [Cpd 783] | 1090 | – | Kd [2, 5]: 0.732 µM
O=C(c1ccc(Oc2cccc(F)n2)cc1)N1CC(N2CCN(C(=O)c3cscn3)CC2)C1 [Cpd 784] | 1130 | 2.15 | –
O=C(c1cc2cc(Cl)ccc2o1)N1CCN(C2CN(C(=O)c3nccs3)C2)CC1 [Cpd 785] | 1190 | 0.5 | –
Cc1cc(Br)ccc1C(=O)N1CC(N2CCN(C(=O)c3nccs3)CC2)C1 [Cpd 786] | 1200 | – | Kd [2, 5]: 0.665 µM
O=C(c1cnc2cc(Cl)ccc2c1)N1CC(N2CCN(C(=O)c3nccs3)CC2)C1 [Cpd 787] | 1210 | – | Kd [2, 5]: 0.247 µM
Cc1cc(C(=O)N2CC(N3CCN(C(=O)c4nccs4)CC3)C2)c(C)n1CC(F)(F)F [Cpd 788] | 1230 | – | Kd [2, 5]: 1.98 µM
Cc1nc2cc(C(=O)N3CC(N4CCN(C(=O)c5nccs5)CC4)C3)ccc2n1CC(F)(F)F [Cpd 789] | 1370 | – | Kd [2, 7]: 0.043 µM
O=C(c1ccc(Sc2cccc(C(F)(F)F)c2)cc1)N1CC(N2CCN(C(=O)C(F)(F)F)CC2)C1 [Cpd 790] | 1420 | – | Kd [2, 7]: 2.49 µM

Compounds with a lower IC50 [1], results first:

IC50 [1] [nM] | Kd [2, 4] [µM] | Compound | also measured
421 | 0.095 | O=C(c1ccc(Oc2ccccn2)c(Cl)c1)N1CC(N2CCN(C(=O)c3nccs3)CC2)C1 [Cpd 752] | –
402 | 1.32 | Cc1c(C(=O)N2CC(N3CCN(C(=O)c4nccs4)CC3)C2)oc2ccc(F)cc12 [Cpd 751] | –
395 | 0.025 | Cn1c2ccccc2c2cc(C(=O)N3CC(N4CCN(C(=O)c5nccs5)CC4)C3)ccc21 [Cpd 750] | –
387 | – | Cc1c(C(=O)N2CC(N3CCN(C(=O)c4cscn4)CC3)C2)sc2nc(C(F)(F)F)ccc12 [Cpd 749] | Kd [2, 3]: 0.036 µM
384 | 0.04 | Cc1c(C(=O)N2CCN(C3CN(C(=O)c4cc[nH]c4)C3)CC2)sc2cc(C(F)(F)F)ccc12 [Cpd 748] | –
377 | 0.111 | O=C(c1cc2cc(C(F)(F)F)ccc2[nH]1)N1CCN(C2CN(C(=O)c3nccs3)C2)CC1 [Cpd 747] | –
373 | – | O=C(c1nccs1)N1CC(N2CCN(C(=O)c3[nH]c4nc(C(F)(F)F)ccc4c3Br)CC2)C1 [Cpd 746] | Kd [2, 5]: 0.263 µM
324 | – | O=C(c1cnc2cc(Cl)c(Cl)cc2c1)N1CC(N2CCN(C(=O)c3nccs3)CC2)C1 [Cpd 743] | Kd [2, 5]: 0.133 µM
306 | – | Cc1c(C(=O)N2CC(N3CCN(C(=O)c4cscn4)CC3)C2)sc2cc(F)ccc12 [Cpd 742] | Kd [2, 6]: 0.02 µM
294 | 0.035 | CC(C)n1c(C(F)(F)F)nc2cc(C(=O)N3CC(N4CCN(C(=O)c5nccs5)CC4)C3)ccc21 [Cpd 740] | –
290 | – | O=C(c1ccc[nH]1)N1CCN(C2CN(C(=O)c3[nH]c4nc(C(F)(F)F)ccc4c3Br)C2)CC1 [Cpd 739] | Kd [2, 5]: 0.265 µM
289 | 0.291 | O=C(c1ccc(S(=O)(=O)c2cccc(C(F)(F)F)c2)cc1)N1CC(N2CCN(C(=O)c3cscn3)CC2)C1 [Cpd 738] | –
285 | 0.031 | Cc1ccc2sc(C(=O)N3CC(N4CCN(C(=O)c5cscn5)CC4)C3)c(C(F)(F)F)c2c1 [Cpd 737, 1-(1-{[5-Methyl-3-(trifluoromethyl)-1-benzothiophen-2-yl]carbonyl}azetidin-3-yl)-4-(1,3-thiazol-4-ylcarbonyl)piperazine] | –
268 | 0.16 | O=C(c1ccc2[nH]c(C3CCCCC3)nc2c1)N1CC(N2CCN(C(=O)c3nccs3)CC2)C1 [Cpd 735] | –
256 | 1.26 | O=C(c1ccc(Oc2cccnc2)cc1)N1CC(N2CCN(C(=O)c3nccs3)CC2)C1 [Cpd 734] | –
240 | – | Cc1c(C(=O)N2CC(N3CCN(C(=O)c4ccc[nH]4)CC3)C2)n(C)c2ccc(Cl)cc12 [Cpd 733] | Kd [2, 5]: 0.453 µM
239 | 0.002 | Cc1nc2cc(C(=O)N3CC(N4CCN(C(=O)c5nccs5)CC4)C3)ccc2n1C1CCCCC1 [Cpd 732] | –
238 | – | O=C(c1ccc(OCC(F)(F)F)cc1)N1CC(N2CCN(C(=O)c3nccs3)CC2)C1 [Cpd 730] | Kd [2, 5]: 0.146 µM
238 | 0.016 | Cc1c(C(=O)N2CCN(C3CN(C(=O)c4ccc[nH]4)C3)CC2)sc2cc(C(F)(F)F)ccc12 [Cpd 731] | –
236 | – | O=C(c1ccc2c(c1)CCN(C(=O)C1CCC(F)(F)CC1)C2)N1CC(N2CCN(C(=O)c3nccs3)CC2)C1 [Cpd 729] | Kd [2, 6]: 0.185 µM
219 | – | Cc1cc(C(=O)N2CC(N3CCN(C(=O)c4nccs4)CC3)C2)ccc1Br [Cpd 727] | Kd [2, 5]: 0.251 µM
218 | 0.127 | Cc1c(C(=O)N2CCN(C3CN(C(=O)c4cncs4)C3)CC2)sc2cc(C(F)(F)F)ccc12 [Cpd 726] | –
206 | 0.05 | O=C(c1ccc2c(c1)CCN2C(=O)c1ccccc1)N1CC(N2CCN(C(=O)c3nccs3)CC2)C1 [Cpd 724, 1-(Phenylcarbonyl)-5-({3-[4-(1,3-thiazol-2-ylcarbonyl)piperazin-1-yl]azetidin-1-yl}carbonyl)-2,3-dihydro-1H-indole] | –
181 | – | Cc1cc(C(=O)N2CC(N3CCN(C(=O)c4nccs4)CC3)C2)sc1Br [Cpd 723] | Kd [2, 3]: 0.292 µM
